Assay results as given in US11447487B2, “Spiroheptanyl hydantoins as rock inhibitors” (BRISTOL-MYERS SQUIBB COMPANY, priority 2017, dated 2022).

Legend:
ROCK2 = ROCK2 (Homo sapiens (Human), UniProt O75116); assay: ROCK assay (Caliper LABCHIP peptide phosphorylation); type: biochemical; details: 5 μM ATP, 1.5 μM peptide substrate
Outline: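 Human ROCK2 reaction with 5 μM ATP and 1.5 μM FITC-labelled peptide substrate in 20 mM HEPES pH 7.5, 20 mM MgCl2, 4 mM DTT, DMSO <2%; stopped with EDTA. Phosphorylated and unphosphorylated peptide separated by microfluidic mobility shift; IC50 from dose-response curve fit.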

[1] = tested on: neointimal formation in rats; details: cited from earlier work
[2] = tested on: spontaneously hypertensive rat, renal hypertensive rat and deoxycortisone acetate salt hypertensive rat models; details: cited from earlier work
Dahl salt-sensitive rats = details: rat, in vivo; cited from earlier work
[3] = tested on: IL-1 beta-induced coronary stenosis; details: long term treatment; cited from earlier work

Chain of ROCK2 (O75116 whole entry, species assumed): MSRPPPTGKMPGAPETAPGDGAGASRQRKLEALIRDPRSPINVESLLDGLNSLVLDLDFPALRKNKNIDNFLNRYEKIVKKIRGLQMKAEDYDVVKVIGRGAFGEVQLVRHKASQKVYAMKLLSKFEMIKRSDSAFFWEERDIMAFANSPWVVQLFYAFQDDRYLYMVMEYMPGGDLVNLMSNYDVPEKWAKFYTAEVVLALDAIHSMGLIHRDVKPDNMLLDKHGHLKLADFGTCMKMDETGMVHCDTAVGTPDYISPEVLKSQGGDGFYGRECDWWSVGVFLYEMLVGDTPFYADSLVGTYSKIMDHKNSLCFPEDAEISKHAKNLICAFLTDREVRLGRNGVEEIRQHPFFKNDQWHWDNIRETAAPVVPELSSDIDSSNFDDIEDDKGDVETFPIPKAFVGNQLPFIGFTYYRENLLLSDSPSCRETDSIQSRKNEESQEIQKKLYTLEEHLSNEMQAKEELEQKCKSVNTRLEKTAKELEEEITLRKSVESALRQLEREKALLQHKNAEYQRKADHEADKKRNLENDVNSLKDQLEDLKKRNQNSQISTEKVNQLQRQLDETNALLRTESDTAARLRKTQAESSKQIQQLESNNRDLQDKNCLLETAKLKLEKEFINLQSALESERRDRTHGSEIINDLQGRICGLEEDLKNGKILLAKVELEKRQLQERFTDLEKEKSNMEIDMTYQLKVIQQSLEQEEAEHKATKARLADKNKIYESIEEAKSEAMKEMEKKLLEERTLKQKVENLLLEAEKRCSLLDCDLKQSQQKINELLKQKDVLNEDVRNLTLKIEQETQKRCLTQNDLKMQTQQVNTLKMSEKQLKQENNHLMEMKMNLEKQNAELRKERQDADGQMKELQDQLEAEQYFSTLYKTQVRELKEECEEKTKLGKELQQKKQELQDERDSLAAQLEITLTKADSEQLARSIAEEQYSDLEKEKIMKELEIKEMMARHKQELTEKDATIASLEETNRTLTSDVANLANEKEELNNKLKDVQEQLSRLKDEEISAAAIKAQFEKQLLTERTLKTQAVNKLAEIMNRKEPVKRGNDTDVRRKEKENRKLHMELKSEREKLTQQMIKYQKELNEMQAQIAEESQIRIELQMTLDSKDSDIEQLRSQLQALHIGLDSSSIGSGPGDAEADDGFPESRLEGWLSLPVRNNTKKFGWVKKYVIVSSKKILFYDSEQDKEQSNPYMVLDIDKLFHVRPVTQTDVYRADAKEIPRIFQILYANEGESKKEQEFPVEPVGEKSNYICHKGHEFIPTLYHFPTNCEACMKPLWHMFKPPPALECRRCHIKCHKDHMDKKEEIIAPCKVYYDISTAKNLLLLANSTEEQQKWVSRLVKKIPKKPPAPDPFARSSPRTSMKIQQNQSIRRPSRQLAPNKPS

| Structure (SMILES) | IC50 (ROCK2) [nM] | further results |
| --- | --- | --- |
| CS(=O)(=O)c1cccc(N2CC(=O)N([C@H]3C[C@@]4(C[C@H](Oc5ncccc5C(N)=O)C4)C3)C2=O)c1 (some centres unmarked) [Example 89, 2-(((αR)-6-(3-(3-(methylsulfonyl)phenyl)-2,5-dioxoimidazolidin-1-yl)spiro[3.3]heptan-2-yl)oxy)nicotinamide] | 13 |  |
| C/C(=C\c1ccccc1)CC1NC(=O)N([C@H]2C[C@@]3(C[C@H](Oc4ncccc4C(N)=O)C3)C2)C1=O (some centres unmarked) [Example 90, 2-(((αR)-6-(4-((E)-2-methyl-3-phenylallyl)-2,5-dioxoimidazolidin-1-yl)spiro[3.3]heptan-2-yl)oxy)nicotinamide] | 21 |  |
| [H][C@]1(Oc2ncccc2C(N)=O)C[C@]2(C[C@@H](N3C(=O)NC(CC(C)Cc4ccccc4)C3=O)C2)C1 (stereo partly drawn) [Example 91, 2-(((aR)-6-(4-(2-methyl-3-phenylpropyl)-2,5-dioxoimidazolidin-1-yl)spiro[3.3]heptan-2-yl)oxy)nicotinamide] | 29 |  |
| C[C@H](C[C@@H]1NC(=O)N([C@H]2C[C@@]3(C[C@H](Oc4ncccc4C(N)=O)C3)C2)C1=O)C(F)(F)F (stereo partly drawn) [Example 92, 2-(((αR)-6-((S)-2,5-dioxo-4-((R)-3,3,3-trifluoro-2-methylpropyl)imidazolidin-1-yl)spiro[3.3]heptan-2-yl)oxy)nicotinamide] | 6 |  |
| C[C@@H](C[C@@H]1NC(=O)N([C@H]2C[C@@]3(C[C@H](Oc4ncccc4C(N)=O)C3)C2)C1=O)C(F)(F)F (stereo partly drawn) [Example 93, 2-(((αR)-6-((S)-2,5-dioxo-4-((S)-3,3,3-trifluoro-2-methylpropyl)imidazolidin-1-yl)spiro[3.3]heptan-2-yl)oxy)nicotinamide] | 9 |  |
| CC(C)(CC1NC(=O)N([C@H]2C[C@@]3(C[C@H](Oc4ncccc4C(N)=O)C3)C2)C1=O)c1ccccc1 (some centres unmarked) [Example 94, 2-(((αR)-6-(2,5-dioxo-4-(2-phenyl-2-methylpropyl)imidazolidin-1-yl)spiro[3.3]heptan-2-yl)oxy)nicotinamide] | 27 |  |
| CC(C[C@@H]1NC(=O)N([C@H]2C[C@@]3(C[C@H](Oc4ncccc4C(N)=O)C3)C2)C1=O)c1ccccc1 (stereo partly drawn) [Example 95, 2-(((αR)-6-((S)-2,5-dioxo-4-(2-phenyl-propyl)imidazolidin-1-yl)spiro[3.3]heptan-2-yl)oxy)nicotinamide] | 6 |  |
| CC(C[C@H]1NC(=O)N([C@H]2C[C@@]3(C[C@H](Oc4ncccc4C(N)=O)C3)C2)C1=O)c1ccccc1 (stereo partly drawn) [Example 96, 2-(((αR)-6-((R)-2,5-dioxo-4-(2-phenyl-propyl)imidazolidin-1-yl)spiro[3.3]heptan-2-yl)oxy)nicotinamide] | 264 |  |
| NC(=O)c1cccnc1O[C@H]1CC2(C1)C[C@H](N1C(=O)N[C@@H](CC3CCC(NC(=O)OCc4ccccc4)CC3)C1=O)C2 (some centres unmarked) [Example 97] | 28 |  |
| NC(=O)c1cccnc1O[C@H]1C[C@]2(C1)C[C@H](N1C(=O)NC(CC3CCN(C(=O)OCc4ccccc4)CC3)C1=O)C2 (some centres unmarked) [Example 98, 2-(((αR)-6-(2,5-dioxo-4-(N-benzyloxycarbonyl-piperidin-4-ylmethyl)imidazolidin-1-yl)spiro[3.3]heptan-2-yl)oxy)nicotinamide] | 52 |  |
| NC(=O)c1cccnc1O[C@H]1C[C@]2(C1)C[C@H](N1C(=O)NC(C[C@@H]3C[C@H]4CC[C@@H](C3)N4C(=O)OCc3ccccc3)C1=O)C2 (some centres unmarked) [Example 99, benzyl 3-((1-((αR)-6-((3-carbamoylpyridin-2-yl)oxy)spiro[3.3]heptan-2-yl)-2,5-dioxoimidazolidin-4-yl)methyl)-8-azabicyclo[3.2.1] octane-8-carboxylate] | 659 |  |
| [H][C@]1(Oc2ncccc2C(N)=O)C[C@@]2(C[C@H](N3C(=O)N[C@@H](C[C@H]4CC[C@H](NC(=O)c5ccccc5)CC4)C3=O)C2)C1 (some centres unmarked) [Example 100] | 52 |  |
| NC(=O)c1cccnc1O[C@H]1C[C@]2(C1)C[C@H](N1C(=O)NC(CC3CCN(C(=O)c4ccccc4)CC3)C1=O)C2 (some centres unmarked) [Example 101, 2-(((αR)-6-(2,5-dioxo-4-(N-benzoylpiperidin-4-ylmethyl)imidazolidin-1-yl)spiro[3.3]heptan-2-yl)oxy)nicotinamide] | 146 |  |
| [H][C@]1(Oc2nc(OC)ccc2C(N)=O)C[C@]2(C[C@@H](N3C(=O)N[C@@H](CC(C)C(F)(F)F)C3=O)C2)C1 (some centres unmarked) [Example 102] | 5 |  |
| C[C@@H](N)[C@H]1CC[C@H](C(=O)Nc2ccncc2)CC1 [Example Y-27632, Y-27632] |  | neointimal formation [1]: inhibited neointimal formation; blood pressure in control rats ([2]; control rats): only a minor effect on blood pressure; blood pressure ([2]; three rat models of hypertension): significantly decrease blood pressure; ventricular hypertrophy, fibrosis and function (Dahl salt-sensitive rats): improve ventricular hypertrophy, fibrosis and function |
| O=S(=O)(c1cccc2cnccc12)N1CCCNCC1 [fasudil] |  | coronary constrictive remodeling [3]: promote a regression of coronary constrictive remodeling; coronary stenosis [3]: progressively reduce coronary stenosis |
